{"source": "patent US9040671B2", "about": "“Methods for cancer management targeting Co-029” (Institut National de la Sante et de la Recherche Medicale …, priority 2010, dated 2015)", "key": {"Is1-Co029 cells": {"test_system": "Is1-Co029 cells", "experiment": "2D cell motility on collagen I by videomicroscopy, Is1-Co029 cells", "assay_type": "cell-based, human", "procedure": "Cells and cell culture. The cell lines Isreco1, Isreco2 and Isreco3 were initially derived from a primary human colon cancer surgical specimen (Isreco1)(Duke's C, class III) and its corresponding liver and peritoneal metastases (Cajot et al., 1997). These cells were cultured in Dulbecco's modified Eagle's medium (DMEM) supplemented with 10% FCS, glutamax and antibiotics (all from Invitrogen). For experiments, tissue culture plastics were coated with rat tail Collagen I (BD Biosciences) for 1 hour at 50 μg/ml and rinsed with PBS.\nConstruction of the Co-029 and CD81 lentiviral vector and transduction of Isreco1 cells. Since Isreco1 cells were not efficiently transfected by using non retroviral methods we constructed the TRIPΔ3-EF1α-Co029 and TRIPΔ3-EF1α-CD81 plasmids by inserting the human Co029 and the human CD81 cDNA coding sequence in TRIPΔ3-EF1α vectors. […]. Is1-Co029 and Is1-CD81 cells were obtained by transducing Isrecol cells twice with concentrated lentiviral particles. Is1-Co029low cells were obtained following a single transduction.\nVideomicroscopy. Analysis of 2D cell motility on collagen I films was performed using phase contrast on an inverted microscope (Axiovert 200; Zeiss,Oberkochen, Germany) equipped with an environmental chamber with 5% CO2 in air at 37° C. The microscope was driven by the Metamorph software (Roper Scientific),and images were recorded with a Coolsnap HQ camera (Roper Scientific). Stacks of phase contrast images were collected every 15 min for 24 h at ×200 magnification. Cell migration was quantified using the manual tracking plugin of ImageJ (Rasband, 2007) Raw data were transfered to Excel for speed calculations and statistical analysis was performed by the non parametric Mann-Whitney test in Graphpad. For each position at least 10 cells were analyzed. Experiments were repeated from 2 to 10 times to verify the robustness of the results and the stability of the measurements.\nFor silencing experiments, motility measures were performed 48 hours after RNAi treatments. […]"}, "p120-catenin": {"test_system": "p120-catenin", "experiment": "Flow cytometry of p120-catenin in permeabilized cells after RNA silencing", "assay_type": "cell-based, human", "conditions": "Is1-Co029 cells on collagen I, 48 hours after silencing", "procedure": "For intracellular cytometry, cells were detached using trypsin or scrapped in PBS (4° C.) then fixed for 20 min at 4° C. with 1% formaldehyde in PBS. After centrifugation, cells were incubated in methanol 100% for 10 min at −20° C. then washed in PBS and stained with 10 μg/ml of primary antibody. After washes in PBS, cells were incubated with 10 μg ml FITC-labelled secondary antibody (Beckman Coulter), washed again three times and immediately analysed.\n(§1) RNA silencing. Cells (1-3×10^5 cells in DMEM medium) were reverse transfected with synthetic si-RNA oligonucleotides using Interferrin (Ozyme) according to manufacturer's protocol.\n(§2) 6, 12 or 24 well cell culture plates were coated with rat tail collagen I. Plates were rinsed in PBS. One μl of the siRNA (10 μM) oligonucleotide mix was added to 96 μl DMEM without serum and 3-5 μl Interferrin and incubated at room temperature in each well during 20 min to allow formation of transfection complexes. Cells detached by trypsin-EDTA were layered at appropriate concentration in 400 μlDMEM medium with serum (the final concentration of si-RNA was 20 nM)."}, "E-cadherin": {"test_system": "E-cadherin", "experiment": "Flow cytometry of surface E-cadherin after RNA silencing", "assay_type": "cell-based, human", "conditions": "Is1-Co029 cells cultured on collagen I", "procedure": "Immunofluorescence. For flow cytometry analysis of cell surface molecules, cells were detached using a non-enzymatic solution (Invitrogen), washed and stained with 10 μg/ml of primary antibody. After washes in culture medium, cells were incubated with 10 μg/ml-1 FITC-labelled secondary antibody (Beckman Coulter), washed again three times and fixed with 1% formaldehyde in PBS. All incubations were performed for 30 min at 4° C. Analysis of cell-surface staining was performed using a FACScalibur flow cytometer (Becton-Dickinson, San Jose, Calif., USA).\nas §1, §2"}, "Is1-Co029 tumor cells": {"test_system": "Is1-Co029 tumor cells", "experiment": "Effect of antiCo-029 antibodies on subcutaneous tumor growth", "assay_type": "in vivo, mice", "conditions": "1 mg i.p. biweekly; for Tumor growth inhibition (T/C %): vs PBS control", "procedure": "Effect of antiCo-029 antibodies on subcutaneous tumor growth. In order to realize the animal experiments, a large amounts of purified mAbs was prepared. The yield of mAb TS29.2 (IgG2b) was of approximately 5 mg purified mAb/ml ascitis. Mice produce a mean of 10 ml ascitis/mouse.\nAscitis were clarified by centrifugation and 0.45 μm filtered. The mAbs were purified by using the Biosepra MEP HyperCel* Hydrophobic Charge Induction Chromatography (HCIC) Sorbent, dialysed against PBS and the purity checked by gel electrophoresis and Coomassie Blue coloration. Fractions were aliquoted and frozen at −20° C.\nThe effect of the antibodies on tumor growth was evaluated by subcutaneous implantation of tumor cells issued from colon carcinoma cell lines, followed by repeated injections of monoclonal antibodies with appropriate controls.\nTen Nude mice were injected subcutaneously with 10^7 Is1-Co029 tumor cells and divided in two groups, antibody treated and PBS control. Each group received an i.p. injection of either 1 mg Ts29.2 or the same volume of PBS and biweekly subsequent injections of 1 mg Ts29.2 or PBS i.p., for a total of nine injections. The size of the tumor was determined by the formula (π/6×length×width×thickness).\nTumor growth inhibition (T/C %) was defined as the ratio of the median tumor volume for the treated vs. control group. It will be calculated as T/C %=[(median tumor volume of treated group at day X)/(median tumor volume of control group at day X)]×100."}}, "data": [{"molecule": "si-Co029: si-RNA to Co-029, GGUAUCCUAGGAGCUGUUUdTdT (SEQ ID NO: 10) (listed as RNA, chemistry not fully specified)", "values": [{"measurement": "effect on the acceleration of Is1-Co029 cells induced by si-p120, in words", "setting": "Is1-Co029 cells; cells silenced for p120ctn", "value": "reversed"}, {"measurement": "effect on the increased motility induced by si-Ecad, in words", "setting": "Is1-Co029 cells; co-silencing with si-Ecad", "value": "suppressed"}]}, {"molecule": "si-RhoA: si-RNA to RhoA, GAACUAUGUGGCAGAUAUCdTdT (SEQ ID NO: 23), Dharmacon (listed as RNA, chemistry not fully specified) [reference compound]", "values": [{"measurement": "effect on motility of Is1-Co029 cells, in words", "setting": "Is1-Co029 cells; sparse cells on collagen I, agent alone", "value": "same effect on motility as p120-catenin silencing"}]}, {"molecule": "si-p120: si-RNA to p120ctn; si-p120a GCCAGAGGUGGUUCGGAUAdTdT (SEQ ID NO: 20) used throughout the study (listed as RNA, chemistry not fully specified)", "values": [{"measurement": "reduction of the amount of p120ctn", "setting": "p120-catenin", "value": 80, "unit": "%"}, {"measurement": "reduction of surface E-cadherin", "setting": "E-cadherin", "value": 50, "unit": "%"}]}, {"molecule": "Ts29.2: murine monoclonal antibody against Co-029 obtainable from hybridoma CNCM I-4047; VH SEQ ID NO: 1, VL SEQ ID NO: 5 (antibody, V domains shown, Synthetic VH; Synthetic VL) VH: EVKVVESGGGLVQPGGSLRLSCATSGFTFTDYYMSWVRQPPGKALEWLGFIRNRVSGYTTEYSASVQGRFTISRDNSQSILYLQMNTLRAEDSATYYCARDHYGNFAMDYWGQGTSVTVSS VL: DIQMTQSSSSFSVSLGDRVTITCKASEDIYNRLAWYQQKPGNAPRLLISGATSLETGVPSRFSGSGSGKDYTLSITSLQTEDVASYYCQQYWSTPFTFGSGTKLEIK", "values": [{"measurement": "growth of Is1-Co029 cells (subcutaneous tumor), in words", "setting": "Is1-Co029 tumor cells; Nude mice", "value": "inhibits significantly"}, {"measurement": "Tumor growth inhibition (T/C %)", "setting": "Is1-Co029 tumor cells; day 43 (J43), nine injections", "value": 36, "unit": "%"}, {"measurement": "Tumor growth inhibition (T/C %)", "setting": "Is1-Co029 tumor cells; day 50 (J50), nine injections", "value": 35, "unit": "%"}, {"measurement": "mean tumor size", "setting": "Is1-Co029 tumor cells; day 50, nine injections, PBS control 557±141.6", "value": "195.7±47.7", "unit": "mm^3"}]}]}
